Structures can show the parent of a compound that is named as a salt.
Tests used:
liver of NASH mice = test: Liver gene expression by Affymetrix microarray in NASH mice; format: in vivo, C57B1/6J mice; settings: liver mRNA, 10 mg/kg/day, 35 days
Experimental: Gene expression was analyzed using Affynmatrix microarray followed by GOBY software analyses. Data (Table 5, below) represent average fold change in gene expression in the Compound 2/vehicle group.
Gene expression was analyzed using Affynmatrix microarray followed by GOBY software analyses. Data (Table 6, below) represent average fold change in gene expression in the Compound 2/vehicle group.
Animals were placed in Surgivet/ANESCO ISOTECY chamber (Vetequip Incorporated, Waukesha, Wis.) filled with Isoflurane (1-chloro-2,2,2-trifluoroethyl difluoromethyl ether, CAS#26675-46-7), USP Liquid for Inhalation (Baxter, Deerfield, Ill., Cat #10019-360-40) for anesthetization. Cardiac blood is taken with BD 1 mL Syringe Tuberculin Slip Tip (Becton, Dickinson & Company, Franklin Lakes, N.J., Cat #309602) with B-D25G 5/8 needle (Becton Dickinson, Franklin Lakes, N.J., Cat #305122) and was saved into Microtainer brand tube with EDTA (Becton, Dickinson and Company, Cat #365973). The heart, liver, kidney, adipose (white and brown) and muscle were collected using fine forceps and fine scissors. Tissues were stored in aluminum foils and flash frozen in liquid nitrogen for further analyses. ˜100 mg of heart, liver, adipose (white) were saved in tubes containing 1 mL RNAlater RNA Stabilization Reagent (Qiagen, Valencia, Calif., Cat #76106) and flash frozen in liquid nitrogen for gene array analyses. The liver, muscle and adipose (white) were fixed in 10% Zinc Formalin (Fisher Diagnostics, Middletown, Va., Cat#032-065, CAS #50-00-0) for histology analyses. In addition, the liver and muscle were frozen in Cryomold Standard Disposable Specimen Mold 25 mm×20 mm×5 mm (Sakura Finetechnical U.S.A., Inc., Torrance, Calif., Cat #4557) with O.C.T Compound (Sakura Finetechnical U.S.A., Inc., Torrance, Calif., Cat #4583) and frozen on dry ice mixed with 2-Methylbutane (Isopentane) (Sigma-Aldrich, St. Louis, Mo., CAS #78-78-4, Cat #270342-2L.
Total RNA was extracted using the RNeasy mini protocol (Qiagen, Cat: 74106), gene array analyses was performed using Mouse Genome 430.2.0 Affymetrix CHIP and VAMPIRE analyses software at the Veterans Affair, UCSD core facility, UCSD, San Diego, Calif.

NASH mice = test: Glucose tolerance testing (ipGTT) in NASH mice; format: in vivo, C57B1/6J mice
Experimental: Following 120-150 days on the HFD, mice in the NASH group were treated with Compound 2 (5 or 10 mg/Kg/day) or vehicle (10% Encapsin) for 42 days. Fasting and post prandial (PP) blood draws were taken at the beginning of the study (compound treatment) to identify and confirm the NASH group and during the study to evaluate various pharmacological responses. Since the NASH mice are severely hyperinsulinemic compared to NC mice, glucose tolerance testing (GTT, measures peripheral insulin resistance) was performed to evaluate the effect of Compound 2 on improvement of peripheral insulin sensitivity. […] Body weight and food intake was measured throughout the study.
Mice were then fasted overnight at 1700 hours for an experiment the following morning at 9:30 am. The animals were restrained in a towel to reduce handling stress and blood collection was from tail nick. Heat lamps were turned on 5 minutes prior to blood draws to warm animals slightly facilitating the flow of blood resulting in a decreased collection time. Blood glucose was measured using an Accu-check Compact Monitoring Kit (Roche Diagnostics, Indianapolis, Ind., Cat #3149137). Blood was also collected (˜100 μl) into EDTA microvettes (Sarstedt, Newton, N.C., Cat#16.444.100) for insulin ELISA analysis. After baseline blood collection, 2 g/kg Dextrose (Hospira, Lake Forest, Ill., NDC#0409-6648-02) was administered by intraperitoneal injection followed by glucose readings and blood draws (˜50 ul) at time points of 15, 30, 60, and 120 minutes post glucose challenge. Mice were kept in their home cages in between collection intervals.
Insulin fasting plasma samples were tested using Mercodia ultra sensitive mouse insulin ELISA: 2.5 μL EDTA plasma, ALPCO Diagnostics, Uppsala, Sweden, Cat #08-10-1150-99, LOQ (0.22-7.1 μg/L). Mouse JE/MCP-1 post prandial samples were collected at sacrifice. 12.5 μL EDTA plasma, R & D Systems, Minneapolis, Minn., Cat # MFE00, LOQ (15.6-1000 pg/mL).

[1] = oral administration, NASH mice, p<0.05 vs. vehicle

Structure (SMILES): C[C@@H]1CN(Cc2ccc(OC(F)(F)F)cc2)C[C@H](C)N1S(=O)(=O)c1cccc2c1C[C@@H](C(=O)O)C2 [Compound 2, (S)-4-[cis-2,6-Dimethyl-4-(4-trifluoromethoxy-benzyl)-piperazine-1-sulfonyl]-indan-2-carboxylic acid tosylate]
- S100 A6 (inflammatory marker) gene expression vs. vehicle (liver of NASH mice): reduction
- CD14 (Monocyte/Macrophage marker) gene expression, Fold change over vehicle (liver of NASH mice; 4 hours post dosing, fed state): −2 fold
- GADD45 (Inflammatory marker) gene expression, Fold change over vehicle (liver of NASH mice; 4 hours post dosing, fed state): 8 fold
- ICAM 1 (Inflammatory marker) gene expression, Fold change over vehicle (liver of NASH mice; 4 hours post dosing, fed state): −2.1 fold
- MARCO (Monocyte/Macrophage marker) gene expression, Fold change over vehicle (liver of NASH mice; 4 hours post dosing, fed state): −2.5 fold
- Orosomucoid 2 (Acute Phase Reactant Protein) gene expression, Fold change over vehicle (liver of NASH mice; 4 hours post dosing, fed state): −2.4 fold
- Serum myeloid A1 (Acute Phase Reactant Protein) gene expression, Fold change over vehicle (liver of NASH mice; 4 hours post dosing, fed state): −1.9 fold
- Serum myeloid A2 (Acute Phase Reactant Protein) gene expression, Fold change over vehicle (liver of NASH mice; 4 hours post dosing, fed state): −2.2 fold
- CTGF gene expression, Fold change over vehicle (liver of NASH mice; 4 hours post dosing, fed state): Not changed
- Col1a1 gene expression, Fold change over vehicle (liver of NASH mice; 4 hours post dosing, fed state): −6.3 fold
- Col1a2 gene expression, Fold change over vehicle (liver of NASH mice; 4 hours post dosing, fed state): −3 fold
- Col3a1 gene expression, Fold change over vehicle (liver of NASH mice; 4 hours post dosing, fed state): −3 fold
- Col5a2 gene expression, Fold change over vehicle (liver of NASH mice; 4 hours post dosing, fed state): −2.2 fold
- Col6a2 gene expression, Fold change over vehicle (liver of NASH mice; 4 hours post dosing, fed state): −8.9 fold
- Fibronectin gene expression, Fold change over vehicle (liver of NASH mice; 4 hours post dosing, fed state): Not changed
- Timp 1 gene expression, Fold change over vehicle (liver of NASH mice; 4 hours post dosing, fed state): −4.5 fold
- Timp 2 gene expression, Fold change over vehicle (liver of NASH mice; 4 hours post dosing, fed state): Not changed
- Vimentin gene expression, Fold change over vehicle (liver of NASH mice; 4 hours post dosing, fed state): −2.3 fold
- insulin secretion during ipGTT (NASH mice; 21 days, 10 mg/Kg/day, compared to vehicle-treated animals): reduced insulin secretion
- peripheral insulin resistance (NASH mice; 21 days, 10 mg/Kg/day, ipGTT, compared to vehicle-treated animals): improved peripheral insulin resistance
- glucose disposal (NASH mice; [1]): improved glucose disposal
- insulin sensitivity (NASH mice; [1]): improved insulin sensitivity
